Columns and labels:
human DPP1 enzyme = human DPP1 enzyme (Homo sapiens, UniProt P53634); assay: Human DPP1 Enzyme IC50 Assay; assay type: biochemical; design: was first proteolytically processed into its mature form using recombinant human cathepsin L; purchased R&D Systems; settings: activated recombinant human DPP1, 400 μM H-Gly-Arg-AMC, 10 minutes pre-incubation at 37° C., pH 6.0; average of n runs; read-out: Avg. IC50 (Human DPP1 enzyme IC50 value ranges)
How it was run: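 IC50 came from a four-parameter fit of activity relative to no-compound control, with fluorescence (Ex 350/Em 450 nm) read every 5 min for 90 min at 37 °C using 400 μM final H-Gly-Arg-AMC. Cathepsin L-matured human recombinant DPP1 was preincubated 10 min with compound at pH 6.0 (MES, DTT, 1% DMSO).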

active mouse DPP1 enzyme = biological target: T1, active mouse DPP1 enzyme (Mus musculus, UniProt P97821); assay: Mouse DPP1 Enzyme IC50 Assay; assay type: biochemical; settings: active mouse DPP1 enzyme, H-Gly-Arg-AMC substrate, 10 minutes pre-incubation at 37° C., pH 5.5; average of n runs; read-out: Avg. IC50 (Mouse DPP1 enzyme IC50 value ranges)
T1 construct: Each subunit is composed of an N-terminal fragment, a heavy chain and a light chain; purchased R&D Systems
T1 sequence (P97821 25-134 limits assumed): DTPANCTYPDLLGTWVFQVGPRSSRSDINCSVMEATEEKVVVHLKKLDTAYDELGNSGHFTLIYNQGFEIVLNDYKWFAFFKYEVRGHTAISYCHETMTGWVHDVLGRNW
T1 sequence (P97821 231-393 limits assumed): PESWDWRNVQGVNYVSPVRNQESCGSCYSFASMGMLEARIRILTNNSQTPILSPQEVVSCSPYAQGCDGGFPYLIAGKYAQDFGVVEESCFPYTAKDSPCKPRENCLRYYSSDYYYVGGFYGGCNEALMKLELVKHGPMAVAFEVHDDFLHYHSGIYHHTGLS
T1 sequence (P97821 394-462 limits assumed): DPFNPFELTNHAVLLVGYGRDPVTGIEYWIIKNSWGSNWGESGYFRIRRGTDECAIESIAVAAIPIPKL
Method: Example 96: Mouse DPP1 Enzyme IC50 Assay
Test articles were applied to active mouse DPP1 enzyme (R&D Systems; Minneapolis, MN) in Assay Buffer (50 mM MES pH 5.5, 50 mM NaCl, 5 mM DTT) in a total reaction volume of 125 μL. 25 μL of compound in Assay Buffer plus […] was first added to 50 μL of active mouse DPP1 enzyme at a concentration of 62.5 pg/μL and allowed to pre-incubate for 10 minutes at 37° C. after which 50 μL of […] H-Gly-Arg-AMC substrate (Bachem; St. Torrance, CA) was added, giving final substrate concentration of 400 µM and a final DMSO concentration of […]. Substrate cleavage was measured for 90 minutes at 37° C., with fluorescence at Excitation/Emission 350/450 nm measured every 5 minutes. DPP1 concentration was interpolated based on its activity relative to a standard curve of recombinant active mouse DPP enzyme. IC50 values for each compound were calculated via the XLFit (IDBS Version 5.3.1.3) Add-On to Microsoft Excel using the four parameter fit equation y=(A+((B−A)/(1+((C/x)^D)))), which appears as equation number 205 (4 Parameter Logistic Model or Sigmoidal Dose-Response Model) in XLFit. Default constraints were used for each Parameter. IC50 was defined as the compound concentration at which 50% of enzyme activity was inhibited when compared to the no-compound control.
In Table 2, *** represent average IC50≤5 nM, ** represents average IC50 in the range of 5-20 nM, and * represents average IC50 in the range of ≥20 nM, where the designations were made solely based on the average value without taking into account of the standard deviations.

human DPP1 enzyme, sequence (P53634 25-134 limits assumed): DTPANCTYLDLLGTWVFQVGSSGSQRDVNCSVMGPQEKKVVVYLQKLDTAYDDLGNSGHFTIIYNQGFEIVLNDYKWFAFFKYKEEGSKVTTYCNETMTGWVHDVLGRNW
human DPP1 enzyme, sequence (P53634 231-394 limits assumed): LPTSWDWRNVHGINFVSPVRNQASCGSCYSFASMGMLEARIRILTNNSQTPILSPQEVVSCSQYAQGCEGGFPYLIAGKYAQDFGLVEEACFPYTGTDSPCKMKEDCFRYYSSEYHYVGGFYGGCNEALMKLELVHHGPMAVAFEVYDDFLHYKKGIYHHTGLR
human DPP1 enzyme, sequence (P53634 395-463 limits assumed): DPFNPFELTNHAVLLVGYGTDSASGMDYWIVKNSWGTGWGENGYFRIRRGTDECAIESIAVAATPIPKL

IC50 (human DPP1 enzyme) [nM]	IC50 (active mouse DPP1 enzyme) [nM]	SMILES
> 15	> 20	CN1CCCC2(C1)C(=O)N(C)c1ccc(-c3ccc(C[C@@H](C#N)NC(=O)[C@@H]4CNCCCO4)cc3)cc12 (stereo partly drawn) [Compound 18, (2S)—N-[(1S)-1-cyano-2-(4-{1,1′-dimethyl-2-oxospiro[indole-3,3′-piperidin]-5-yl}phenyl)ethyl]-1,4-oxazepane-2-carboxamide]
> 15	> 20	N#C[C@H](Cc1ccc(-c2cnc3c(n2)CCCC3)cc1)NC(=O)[C@@H]1CNCCCO1 [Compound A11, (2S)—N-[(1S)-1-cyano-2-[4-(5,6,7,8-tetrahydroquinoxalin-2-yl)phenyl]ethyl]-1,4-oxazepane-2-carboxamide]

— patent publication US20260008760A1, “DIPEPTIDYL PEPTIDASE 1 INHIBITORS AND USES THEREOF” (Insmed Incorporated, priority 2024, published 2026)
